Tests used:
[1] = molecular target: Rhodopsin kinase GRK1 (Homo sapiens) (UniProt Q15835); settings: Compound concentration 1000.0 nM
[2] = molecular target: Serine/threonine-protein kinase BRSK2 (Homo sapiens) (UniProt Q8IWQ3); settings: Compound concentration 1000.0 nM
[3] = molecular target: Serine/threonine-protein kinase DCLK1 (Homo sapiens) (UniProt O15075); settings: Compound concentration 1000.0 nM
[4] = molecular target: Serine/threonine-protein kinase STK11 (Homo sapiens) (UniProt Q15831); settings: Compound concentration 1000.0 nM
[5] = molecular target: Serine/threonine-protein kinase VRK2 (Homo sapiens) (UniProt Q86Y07); settings: Compound concentration 1000.0 nM
[6] = molecular target: Interferon-induced, double-stranded RNA-activated protein kinase (Homo sapiens) (UniProt P19525); settings: Compound concentration 1000.0 nM
[7] = molecular target: Serine/threonine-protein kinase Chk1 (Homo sapiens) (UniProt O14757); settings: Compound concentration 1000.0 nM
[8] = system: Tyrosine-protein kinase ABL1 (Homo sapiens), P00519 [F317L]; settings: Compound concentration 1000.0 nM
[9] = molecular target: Vascular endothelial growth factor receptor 1 (Homo sapiens) (UniProt P17948); settings: Compound concentration 1000.0 nM
[10] = molecular target: Phosphatidylinositol 4,5-bisphosphate 3-kinase catalytic subunit beta isoform (Homo sapiens) (UniProt P42338); settings: Compound concentration 1000.0 nM
[11] = system: Epidermal growth factor receptor (Homo sapiens), P00533 [T790M]; settings: Compound concentration 1000.0 nM
[12] = molecular target: Ephrin type-B receptor 1 (Homo sapiens) (UniProt P54762); settings: Compound concentration 1000.0 nM
[13] = molecular target: BMP-2-inducible protein kinase (Homo sapiens) (UniProt Q9NSY1); settings: Compound concentration 1000.0 nM
[14] = molecular target: Protein-tyrosine kinase 6 (Homo sapiens) (UniProt Q13882); settings: Compound concentration 1000.0 nM
[15] = molecular target: Serine/threonine-protein kinase RIO1 (Homo sapiens) (UniProt Q9BRS2); settings: Compound concentration 1000.0 nM
[16] = molecular target: Serine/threonine-protein kinase Chk2 (Homo sapiens) (UniProt O96017); settings: Compound concentration 1000.0 nM
[17] = molecular target: Receptor-interacting serine/threonine-protein kinase 4 (Homo sapiens) (UniProt P57078); settings: Compound concentration 1000.0 nM
[18] = molecular target: 5-hydroxytryptamine receptor 2C (Homo sapiens) (UniProt P28335); settings: Compound concentration 10.0 uM
[19] = molecular target: Mast/stem cell growth factor receptor Kit (Homo sapiens) (UniProt P10721); settings: Compound concentration 1000.0 nM
[20] = molecular target: Calcium/calmodulin-dependent protein kinase type II subunit gamma (Homo sapiens) (UniProt Q13555); settings: Compound concentration 1000.0 nM
[21] = molecular target: AP2-associated protein kinase 1 (Homo sapiens) (UniProt Q2M2I8); settings: Compound concentration 1000.0 nM
[22] = molecular target: Cyclin-dependent kinase 17 (Homo sapiens) (UniProt Q00537); settings: Compound concentration 1000.0 nM
[23] = molecular target: RAF proto-oncogene serine/threonine-protein kinase (Homo sapiens) (UniProt P04049); settings: Compound concentration 1000.0 nM
[24] = molecular target: Serine/threonine-protein kinase WNK1 (Homo sapiens) (UniProt Q9H4A3); settings: Compound concentration 1000.0 nM
[25] = molecular target: Alpha-2B adrenergic receptor (Homo sapiens) (UniProt P18089); settings: Compound concentration 10.0 uM
[26] = molecular target: Casein kinase I isoform gamma-3 (Homo sapiens) (UniProt Q9Y6M4); settings: Compound concentration 1000.0 nM
[27] = molecular target: Mitogen-activated protein kinase 1 (Homo sapiens) (UniProt P28482); settings: Compound concentration 1000.0 nM
[28] = molecular target: Serine/threonine-protein kinase MRCK alpha (Homo sapiens) (UniProt Q5VT25); settings: Compound concentration 1000.0 nM
[29] = molecular target: Sigma intracellular receptor 2 (Homo sapiens, UniProt Q5BJF2); settings: Compound concentration 10.0 uM
[30] = molecular target: Leukocyte tyrosine kinase receptor (Homo sapiens) (UniProt P29376); settings: Compound concentration 1000.0 nM
[31] = molecular target: Serine/threonine-protein kinase MRCK beta (Homo sapiens) (UniProt Q9Y5S2); settings: Compound concentration 1000.0 nM
[32] = molecular target: Tyrosine-protein kinase Tec (Homo sapiens) (UniProt P42680); settings: Compound concentration 1000.0 nM
[33] = system: Tyrosine-protein kinase ABL1 (Homo sapiens), P00519 [H396P]; settings: Compound concentration 1000.0 nM
[34] = molecular target: Serine/threonine-protein kinase PLK1 (Homo sapiens) (UniProt P53350); settings: Compound concentration 1000.0 nM
[35] = molecular target: Tyrosine-protein kinase ABL1 (Homo sapiens) (UniProt P00519); settings: Compound concentration 1000.0 nM
[36] = molecular target: Vascular endothelial growth factor receptor 3 (Homo sapiens) (UniProt P35916); settings: Compound concentration 1000.0 nM
[37] = molecular target: Ephrin type-B receptor 6 (Homo sapiens) (UniProt O15197); settings: Compound concentration 1000.0 nM
[38] = molecular target: Inhibitor of nuclear factor kappa-B kinase subunit epsilon (Homo sapiens) (UniProt Q14164); settings: Compound concentration 1000.0 nM
[39] = molecular target: Receptor tyrosine-protein kinase erbB-4 (Homo sapiens) (UniProt Q15303); settings: Compound concentration 1000.0 nM
[40] = molecular target: Serine/threonine-protein kinase ICK (Homo sapiens) (UniProt Q9UPZ9); settings: Compound concentration 1000.0 nM
[41] = molecular target: ALK tyrosine kinase receptor (Homo sapiens) (UniProt Q9UM73); settings: Compound concentration 1000.0 nM
[42] = molecular target: Cytoplasmic tyrosine-protein kinase BMX (Homo sapiens) (UniProt P51813); settings: Compound concentration 1000.0 nM
Rattus norvegicus = species: Rattus norvegicus; settings: Compound concentration 10.0 uM
[43] = molecular target: Histamine H3 receptor (Homo sapiens) (UniProt Q9Y5N1); settings: Compound concentration 10.0 uM
[44] = molecular target: Serine/threonine-protein kinase SIK1 (Homo sapiens) (UniProt P57059); settings: Compound concentration 1000.0 nM
[45] = molecular target: Hormonally up-regulated neu tumor-associated kinase (Homo sapiens) (UniProt P57058); settings: Compound concentration 1000.0 nM

Sequence of Interferon-induced, double-stranded RNA-activated protein kinase (Homo sapiens) (P19525 whole entry): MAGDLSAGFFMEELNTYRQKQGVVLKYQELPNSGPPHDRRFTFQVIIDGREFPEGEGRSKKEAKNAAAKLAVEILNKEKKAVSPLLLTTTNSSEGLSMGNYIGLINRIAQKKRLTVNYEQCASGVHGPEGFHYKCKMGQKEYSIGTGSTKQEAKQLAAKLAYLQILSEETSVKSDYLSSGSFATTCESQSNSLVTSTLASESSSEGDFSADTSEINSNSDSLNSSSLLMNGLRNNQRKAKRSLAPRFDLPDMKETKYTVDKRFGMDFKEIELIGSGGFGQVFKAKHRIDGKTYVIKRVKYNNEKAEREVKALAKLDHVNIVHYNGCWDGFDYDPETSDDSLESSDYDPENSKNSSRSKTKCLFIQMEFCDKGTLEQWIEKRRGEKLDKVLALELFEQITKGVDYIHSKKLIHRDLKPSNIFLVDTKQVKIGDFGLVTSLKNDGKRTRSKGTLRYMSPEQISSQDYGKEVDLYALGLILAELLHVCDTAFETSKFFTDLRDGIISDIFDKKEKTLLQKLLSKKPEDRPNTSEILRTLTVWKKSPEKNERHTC
Sequence of Serine/threonine-protein kinase Chk2 (Homo sapiens) (O96017 whole entry): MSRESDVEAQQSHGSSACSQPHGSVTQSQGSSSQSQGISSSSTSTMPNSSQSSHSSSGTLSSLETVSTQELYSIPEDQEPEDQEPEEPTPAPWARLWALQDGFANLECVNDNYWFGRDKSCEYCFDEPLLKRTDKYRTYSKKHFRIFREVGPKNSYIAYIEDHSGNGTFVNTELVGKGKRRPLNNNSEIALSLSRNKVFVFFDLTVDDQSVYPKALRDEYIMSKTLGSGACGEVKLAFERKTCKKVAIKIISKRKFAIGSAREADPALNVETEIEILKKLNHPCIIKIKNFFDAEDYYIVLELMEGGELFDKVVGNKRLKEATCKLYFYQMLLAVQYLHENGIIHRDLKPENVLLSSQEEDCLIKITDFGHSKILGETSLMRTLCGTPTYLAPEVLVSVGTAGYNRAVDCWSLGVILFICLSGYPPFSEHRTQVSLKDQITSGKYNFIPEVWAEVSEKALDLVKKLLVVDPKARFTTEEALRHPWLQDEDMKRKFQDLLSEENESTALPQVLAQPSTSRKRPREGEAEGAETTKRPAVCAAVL
Sequence of Tyrosine-protein kinase Tec (Homo sapiens) (P42680 whole entry): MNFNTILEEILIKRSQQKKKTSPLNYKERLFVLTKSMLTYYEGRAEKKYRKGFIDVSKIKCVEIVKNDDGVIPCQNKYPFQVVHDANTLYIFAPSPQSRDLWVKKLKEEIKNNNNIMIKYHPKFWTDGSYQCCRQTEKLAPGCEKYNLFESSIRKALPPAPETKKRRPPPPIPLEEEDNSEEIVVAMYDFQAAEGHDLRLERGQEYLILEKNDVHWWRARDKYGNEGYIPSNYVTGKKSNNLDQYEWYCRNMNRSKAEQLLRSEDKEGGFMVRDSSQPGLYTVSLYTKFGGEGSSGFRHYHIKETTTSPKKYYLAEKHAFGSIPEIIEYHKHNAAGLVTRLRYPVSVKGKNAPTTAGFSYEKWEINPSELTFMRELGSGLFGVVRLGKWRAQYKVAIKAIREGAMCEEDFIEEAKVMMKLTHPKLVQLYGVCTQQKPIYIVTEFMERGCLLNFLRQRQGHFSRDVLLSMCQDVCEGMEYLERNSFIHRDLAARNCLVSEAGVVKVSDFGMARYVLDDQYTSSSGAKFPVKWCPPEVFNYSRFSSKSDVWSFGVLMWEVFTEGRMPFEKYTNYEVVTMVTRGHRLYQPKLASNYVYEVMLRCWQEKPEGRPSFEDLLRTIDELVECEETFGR
Sequence of Phosphatidylinositol 4,5-bisphosphate 3-kinase catalytic subunit beta isoform (Homo sapiens) (P42338 whole entry, looked up, canonical isoform): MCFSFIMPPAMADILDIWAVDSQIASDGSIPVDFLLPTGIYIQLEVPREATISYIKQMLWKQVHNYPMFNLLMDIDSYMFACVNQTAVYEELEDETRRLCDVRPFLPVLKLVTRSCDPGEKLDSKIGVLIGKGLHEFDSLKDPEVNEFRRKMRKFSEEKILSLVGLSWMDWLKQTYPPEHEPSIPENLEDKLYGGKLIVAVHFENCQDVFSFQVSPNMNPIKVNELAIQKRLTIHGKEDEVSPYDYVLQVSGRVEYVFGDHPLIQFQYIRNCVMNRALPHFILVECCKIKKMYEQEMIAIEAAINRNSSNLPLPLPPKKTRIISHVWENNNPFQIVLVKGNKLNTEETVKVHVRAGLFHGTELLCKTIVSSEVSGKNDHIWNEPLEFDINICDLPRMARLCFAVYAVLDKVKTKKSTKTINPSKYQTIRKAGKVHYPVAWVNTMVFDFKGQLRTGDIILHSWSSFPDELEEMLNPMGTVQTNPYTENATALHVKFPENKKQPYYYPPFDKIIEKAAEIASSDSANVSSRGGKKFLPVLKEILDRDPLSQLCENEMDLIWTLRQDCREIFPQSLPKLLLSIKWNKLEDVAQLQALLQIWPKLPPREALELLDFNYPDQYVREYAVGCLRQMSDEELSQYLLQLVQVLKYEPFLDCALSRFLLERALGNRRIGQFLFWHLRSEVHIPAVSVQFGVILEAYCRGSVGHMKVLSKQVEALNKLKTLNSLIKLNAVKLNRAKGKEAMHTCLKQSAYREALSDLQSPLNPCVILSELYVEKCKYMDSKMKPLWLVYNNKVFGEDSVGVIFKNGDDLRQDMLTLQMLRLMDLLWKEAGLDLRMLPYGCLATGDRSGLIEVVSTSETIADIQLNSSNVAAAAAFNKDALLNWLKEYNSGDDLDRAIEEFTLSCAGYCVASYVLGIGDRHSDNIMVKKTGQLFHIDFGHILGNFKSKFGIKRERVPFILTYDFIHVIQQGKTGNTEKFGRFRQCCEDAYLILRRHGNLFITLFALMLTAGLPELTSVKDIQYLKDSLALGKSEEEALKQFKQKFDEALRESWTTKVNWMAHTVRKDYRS
Sequence of Rhodopsin kinase GRK1 (Homo sapiens) (Q15835 whole entry): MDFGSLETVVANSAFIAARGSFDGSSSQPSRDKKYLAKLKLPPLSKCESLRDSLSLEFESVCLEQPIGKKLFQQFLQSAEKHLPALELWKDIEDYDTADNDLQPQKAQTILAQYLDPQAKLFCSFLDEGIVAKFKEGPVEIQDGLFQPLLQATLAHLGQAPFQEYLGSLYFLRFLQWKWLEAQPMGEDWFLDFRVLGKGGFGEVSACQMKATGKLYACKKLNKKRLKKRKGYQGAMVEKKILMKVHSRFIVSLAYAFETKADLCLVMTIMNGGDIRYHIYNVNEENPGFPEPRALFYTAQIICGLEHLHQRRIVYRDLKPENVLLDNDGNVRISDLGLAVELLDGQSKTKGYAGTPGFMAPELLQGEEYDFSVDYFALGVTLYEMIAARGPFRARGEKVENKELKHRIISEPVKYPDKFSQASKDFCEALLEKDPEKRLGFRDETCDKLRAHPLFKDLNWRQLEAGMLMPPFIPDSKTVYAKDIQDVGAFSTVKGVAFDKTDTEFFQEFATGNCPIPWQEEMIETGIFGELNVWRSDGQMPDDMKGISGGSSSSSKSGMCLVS
Sequence of Vascular endothelial growth factor receptor 3 (Homo sapiens) (P35916 whole entry): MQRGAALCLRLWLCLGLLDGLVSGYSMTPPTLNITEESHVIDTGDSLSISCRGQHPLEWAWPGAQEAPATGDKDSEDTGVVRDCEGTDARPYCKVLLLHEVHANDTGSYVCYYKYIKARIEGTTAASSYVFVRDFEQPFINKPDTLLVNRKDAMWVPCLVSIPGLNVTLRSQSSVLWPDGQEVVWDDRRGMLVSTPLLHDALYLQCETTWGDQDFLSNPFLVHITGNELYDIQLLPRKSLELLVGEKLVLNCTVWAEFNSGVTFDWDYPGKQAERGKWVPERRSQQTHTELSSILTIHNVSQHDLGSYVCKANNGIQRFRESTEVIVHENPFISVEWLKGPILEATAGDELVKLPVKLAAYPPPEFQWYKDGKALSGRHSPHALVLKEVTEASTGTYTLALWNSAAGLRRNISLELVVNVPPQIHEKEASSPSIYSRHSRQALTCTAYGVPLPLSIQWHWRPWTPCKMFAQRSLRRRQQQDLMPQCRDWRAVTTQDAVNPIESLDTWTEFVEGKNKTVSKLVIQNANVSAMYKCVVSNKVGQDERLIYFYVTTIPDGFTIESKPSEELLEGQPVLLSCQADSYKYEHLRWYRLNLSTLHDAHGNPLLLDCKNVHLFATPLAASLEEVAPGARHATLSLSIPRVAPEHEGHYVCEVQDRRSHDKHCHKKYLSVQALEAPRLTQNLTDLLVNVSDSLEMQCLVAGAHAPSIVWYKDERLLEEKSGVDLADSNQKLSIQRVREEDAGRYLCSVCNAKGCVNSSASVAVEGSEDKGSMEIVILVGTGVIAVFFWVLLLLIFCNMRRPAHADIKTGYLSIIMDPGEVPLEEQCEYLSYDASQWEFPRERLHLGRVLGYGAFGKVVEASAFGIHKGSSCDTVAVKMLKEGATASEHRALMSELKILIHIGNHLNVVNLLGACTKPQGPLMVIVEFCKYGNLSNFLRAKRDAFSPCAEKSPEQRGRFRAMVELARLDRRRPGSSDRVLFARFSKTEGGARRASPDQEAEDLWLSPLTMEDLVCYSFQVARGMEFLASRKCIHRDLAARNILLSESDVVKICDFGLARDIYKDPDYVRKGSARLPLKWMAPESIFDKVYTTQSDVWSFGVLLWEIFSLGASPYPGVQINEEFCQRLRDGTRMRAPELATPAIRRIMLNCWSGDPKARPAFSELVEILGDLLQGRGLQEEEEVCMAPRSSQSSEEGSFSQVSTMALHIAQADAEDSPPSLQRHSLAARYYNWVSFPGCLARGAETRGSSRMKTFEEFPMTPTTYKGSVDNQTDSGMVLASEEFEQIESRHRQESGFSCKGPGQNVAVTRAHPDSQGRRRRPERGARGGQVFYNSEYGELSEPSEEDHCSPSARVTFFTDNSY
Sequence of Sigma intracellular receptor 2 (Q5BJF2 whole entry): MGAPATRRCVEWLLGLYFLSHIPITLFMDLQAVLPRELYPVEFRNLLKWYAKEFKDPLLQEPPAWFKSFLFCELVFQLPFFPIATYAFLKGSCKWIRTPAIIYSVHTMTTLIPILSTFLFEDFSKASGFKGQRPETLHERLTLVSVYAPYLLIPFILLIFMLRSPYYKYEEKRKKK

For `O=C(Nc1ccc(Oc2ccc(F)cc2)cc1)N1CCc2ncccc2[C@H]1c1ccc(F)cc1` [BAY-897], the residual activity [1] was 91%, the residual activity [2] was 95% and the residual activity [3] was 100%. The residual activity [4] was 61%, the residual activity [5] was 97% and the residual activity [6] was 100%. The residual activity [7] was 100%, the residual activity [8] was 86% and the residual activity [9] was 100%. The residual activity [10] was 77%, the residual activity [11] was 87% and the residual activity [12] was 100%. For the same compound, the residual activity [13] was 94%, the residual activity [14] was 100% and the residual activity [15] was 100%. For the same compound, the residual activity [16] was 94%, the residual activity [17] was 84% and the inhibition [18] was 68.4%. It also gave a residual activity [19] of 91%, a residual activity [20] of 96% and a residual activity [21] of 95%. It also gave a residual activity [22] of 96%, a residual activity [23] of 100% and a residual activity [24] of 96%. For the same compound, the inhibition [25] was 49.6%, the residual activity [26] was 80% and the residual activity [27] was 100%. For the same compound, the residual activity [28] was 94%, the inhibition [29] was 80.8% and the residual activity [30] was 86%. The residual activity [31] was 88%, the residual activity [32] was 86% and the residual activity [33] was 92%. It also gave a residual activity [34] of 78%, a residual activity [35] of 100% and a residual activity [36] of 96%. It also gave a residual activity [37] of 70%, a residual activity [38] of 89% and a residual activity [39] of 82%. For the same compound, the residual activity [40] was 76%, the residual activity [41] was 100% and the residual activity [42] was 100%. The inhibition (Rattus norvegicus) was 33.4%, the inhibition [43] was 3.57% and the residual activity [44] was 99%. The residual activity [45] was 99%.

`O=C(Nc1cnc(Oc2ccc(F)cc2)nc1)N1CCc2ncccc2[C@@H]1c1ccc(F)cc1` [BAY-899] gave a residual activity [1] of 91%, a residual activity [2] of 89% and a residual activity [3] of 83%. It also gave a residual activity [4] of 75%, a residual activity [5] of 100% and a residual activity [6] of 73%. The residual activity [7] was 84%, the residual activity [8] was 83% and the residual activity [9] was 88%. The residual activity [10] was 84%, the residual activity [11] was 91% and the residual activity [12] was 83%. For the same compound, the residual activity [13] was 93%, the residual activity [14] was 98% and the residual activity [15] was 89%. The residual activity [16] was 92%, the residual activity [17] was 100% and the inhibition [18] was 18.3%. The residual activity [19] was 81%, the residual activity [20] was 80% and the residual activity [21] was 91%. The residual activity [22] was 97%, the residual activity [23] was 100% and the residual activity [24] was 100%. The inhibition [25] was 9.66%, the residual activity [26] was 87% and the residual activity [27] was 100%. It also gave a residual activity [28] of 96%, an inhibition [29] of 53.2% and a residual activity [30] of 93%. It also gave a residual activity [31] of 73%, a residual activity [32] of 89% and a residual activity [33] of 100%. It also gave a residual activity [34] of 80%, a residual activity [35] of 93% and a residual activity [36] of 96%. The residual activity [37] was 100%, the residual activity [38] was 98% and the residual activity [39] was 97%. The residual activity [40] was 92%, the residual activity [41] was 99% and the residual activity [42] was 94%. It also gave an inhibition (Rattus norvegicus) of 44.6%, an inhibition [43] of -8.41% and a residual activity [44] of 88%. The residual activity [45] was 100%.

Reference: ChEMBL document CHEMBL4507317, “Data for DCP probe BAY-899” (2021)
